From patent publication US20220323455A1, “FUSED HETEROCYCLIC DERIVATIVES AS ANTIVIRAL AGENTS” (priority 2019, published 2022)

Experiments:
HBV = assay: Anti-HBV activity in HepG2.117 cell line (intracellular HBV DNA, real-time PCR); type: cell-based; settings: Hepatitis B virus, 72 h; HepG2.117 cells, 3 days of treatment, intracellular HBV DNA, mean value; read-out: HBV-AVE-HepG2.117 EC50 (μM, mean value)
Description: The anti HBV activity was measured using the HepG2.117 cell line, a stable, inducibly HBV producing cell line, which replicates HBV in the absence of doxicycline (Tet-off system). The HepG2 cell line is available from ATCC® under number HB-8065. Transfection of the HepG2 cell line can be as described in Sun and Nassal 2006 Journal of Hepatology 45 (2006) 636-645 “Stable HepG2- and Huh7-based human hepatoma cell lines for efficient regulated expression of infectious hepatitis B virus”.
For the antiviral assay, HBV replication was induced, followed by a treatment with serially diluted compound in 96-well plates. After 3 days of treatment, the antiviral activity was determined by quantification of intracellular HBV DNA using real-time PCR and an HBV specific primer set and probe.

[1] = Cytotoxicity in HepG2.117 cells (ATPlite Luminescence Assay); type: cell-based; settings: human, incubated for 3 days, cell viability, mean value, read-out: TOX-HepG2.117 CC50 (μM, mean value)
Description: Cytotoxicity of the compounds was tested using HepG2 or HepG2.117 cells, incubated for 3 days in the presence of compounds. The viability of the cells was assessed using the PERKIN ELMER ATPlite Luminescence Assay System.”

`C[C@@H]1Cc2nn3c(c2CN1C(=O)c1ccc(Cl)c(Cl)c1)C(F)(F)CC[C@@H](O)C3` (single isomer, unassigned) [Example C8, (3,4-Dichlorophenyl)[(3R,8*R)-11,11-difluoro-8-hydroxy-3-methyl-1,3,4,7,8,9,10,11-octahydro-2H-pyrido[4′,3′:3,4]pyrazolo[1,5-a]azepin-2-yl]methanone] showed an EC50 (HBV) of 0.019 µM and a CC50 at 3 days [1] greater than 50 µM.
Compound `C[C@@H]1Cc2nn3c(c2CN1C(=O)c1ccc(Cl)c(Cl)c1)C(F)(F)CC[C@@H](CO)C3` (single isomer, unassigned) [Example C12, (3,4-Dichlorophenyl)[(3R,8*R)-11,11-difluoro-8-(hydroxymethyl)-3-methyl-1,3,4,7,8,9,10,11-octahydro-2H-pyrido[4′,3′:3,4]pyrazolo[1,5-a]azepin-2-yl]methanone] has an EC50 (HBV) of 0.048 µM and a CC50 at 3 days [1] of 32.7 µM.
With `COC(=O)NCC1CCC(F)(F)c2c3c(nn2C1)CCN(C(=O)c1ccc(Cl)c(Cl)c1)C3` (stereo not drawn) [Example C16, Methyl {[2-(3,4-dichlorobenzoyl)-11,11-difluoro-1,3,4,7,8,9,10,11-octahydro-2H-pyrido-[4′,3′:3,4]pyrazolo[1,5-a]azepin-8-yl]methyl}carbamate] the EC50 (HBV) was 0.177 µM and the CC50 at 3 days [1] was 38.2 µM.
Work on `C[C@@H]1Cc2nn3c(c2CN1C(=O)c1ccc(Cl)c(Cl)c1)C(F)(F)CC[C@@H](C(C)(C)O)C3` (single isomer, unassigned) [Example C14, (3,4-Dichlorophenyl)[(3R,8*R)-11,11-difluoro-8-(2-hydroxypropan-2-yl)-3-methyl-1,3,4,7,8,9,10,11-octahydro-2H-pyrido[4′,3′:3,4]pyrazolo[1,5-a]azepin-2-yl]methanone] yielded an EC50 (HBV) of less than 0.195 µM and a CC50 at 3 days [1] of 5.76 µM.
Compound `C[C@@H]1Cc2nn3c(c2CN1C(=O)c1ccc(Cl)c(Cl)c1)C(F)(F)CN(S(C)(=O)=O)CC3` [Example C4, (3,4-Dichlorophenyl)[(3R)-11,11-difluoro-9-(methanesulfonyl)-3-methyl-1,3,4,7,8,9,10,11-octahydro-2H-pyrido[4′,3′:3,4]pyrazolo[1,5-d][1,4]diazepin-2-yl]methanone] has an EC50 (HBV) of 0.052 µM and a CC50 at 3 days [1] greater than 50 µM.
Work on `C[C@@H]1Cc2nn3c(c2CN1C(=O)c1ccc(Cl)c(Cl)c1)C(F)(F)CN(C)CC3` [Example C3, (3,4-Dichlorophenyl)[(3R)-11,11-difluoro-3,9-dimethyl-1,3,4,7,8,9,10,11-octahydro-2H-pyrido[4′,3′:3,4]pyrazolo[1,5-d][1,4]diazepin-2-yl]methanone] yielded an EC50 (HBV) of 0.032 µM and a CC50 at 3 days [1] greater than 50 µM.
